Laboratory results: publication PMC12040169 (PLOS Biology, 2025)

Assay: in vitro
Settings: human, hela cells, % viability

Row | SMILES | viability at 28.5 h, 10 µM | viability at 28.5 h, 10 µM (bulk resorufin, single well)
1 | O=C(COc1ccc(S(=O)(=O)N2CCOCC2)cc1)NCc1ccco1 [CBK268377] | 108% | 
2 | CCc1nccn1CCC(=O)NC(c1ccc(C)cc1)c1cccnc1 (stereo not drawn) [CBK282032] | 103% | 
3 | CC(C)CNc1ncc(-c2ccc(N3CCOCC3)cc2)n2ccnc12 [CBK091273] | 101% | 
4 | O=C(O)Cn1nnc(-c2ccc(OCc3cccc(C(F)(F)F)c3)cc2)n1 [CBK267034] | 97.7% | 
5 | CCOC(=O)C1(c2ccccc2)CCN(C(=O)CC(C)(C)N)CC1 [CBK137117] |  | 96.6%
6 | CC(C)c1ccc(S(=O)(=O)Nc2ccc(C(=O)O)c(O)c2)cc1 [CBK299819] | 104% | 
7 | CCC(CN1CCOCC1)NC(=O)Cc1ccc2c(c1)CCC2 (stereo not drawn) [CBK282810] | 114% | 
8 | N#CCCN(C(=O)NCCCN1CCCC1=O)C1CCCCC1 [CBK156379] | 85.5% | 
9 | CCOC(=O)C1CCCN(CCC(=O)Nc2cc(C)cc(C)c2)C1 (stereo not drawn) [CBK264284] | 100% | 
10 | O=C(NCCN1CCCCC1)C1CC(=O)N(Cc2ccco2)C1 (stereo not drawn) [CBK304877] | 89.8% | 
11 | C1=CCC(CN(CCCn2ccnc2)CC2CCOC2)CC1 (stereo not drawn) [CBK283217] | 88.8% | 
12 | NCCCCCCNC(=O)c1c(O)c2ccccc2oc1=O [CBK261071] | 97.9% | 
13 | Cc1cc(C)n(-c2nc(NC(C)(C)C)nc(N3CCOCC3)n2)n1 [CBK269810] | 85.5% | 
14 | CCN(CC)C(=O)c1[nH]c2ccccc2c1NS(=O)(=O)c1c(C)noc1C [CBK050117] | 89.1% | 
15 | CCc1cc(Br)ccc1S(=O)(=O)NCCOc1ccccc1 [CBK044882] | 88.4% | 
16 | CCCC/C=C/c1cncc(NC2CCC(N)CC2)n1 (stereo not drawn) [CBK037827] | 97.2% | 
17 | Clc1cc(Cl)c2[nH]c3c(c2c1)CCc1nonc1-3 [CBK025929] | 102% | 
18 | CC(Oc1ccc(Br)cc1)C(=O)Nc1nc2c(s1)CCC2 (stereo not drawn) [CBK296723] | 84.8% | 
19 | C/C(=C(/C(=O)N(N)c1nc2ccccc2s1)C(=O)C(F)(F)F)N1CCC(C(N)=O)CC1 [CBK265758] | 87.7% | 
20 | O=C(c1c[nH]c(C(=O)N2CCN(c3ccccn3)CC2)c1)c1ccc(Cl)cc1Cl [CBK107419] | 86.5% | 
21 | O=C1CC(c2ccc(Cl)cc2)CC(=O)C1=CNCCN1CCN(C(=O)Nc2ccccc2)CC1 (stereo not drawn) [CBK263671] | 95.3% | 
22 | COc1ccc(CNc2ccc(N3CCOCC3)c(C(=O)O)c2)cc1OC [CBK269915] | 95.2% | 
23 | O=C(CCCn1ccnc1)N1CCc2[nH]c3ccccc3c2C1 [CBK281872] | 101% | 

Row | SMILES | viability at 28.5 h, 10 µM | viability at 28.5 h, 10 µM (bulk resorufin, single well)
24 | C#CCNC(=O)CC[C@H]1CNC(=O)[C@@H]2[C@@H](CCN2Cc2ccccc2)N1C [CBK289034] | 101% | 
25 | O=C(NCc1cccnc1)c1ccccc1NS(=O)(=O)c1ccc(F)cc1 [CBK269754] | 70.8% | 
26 | CCOc1cccc(-c2ccc(Nc3cccc(NC(=O)c4ccncc4)c3)nc2)c1 [CBK037739] | 49.4% | 
27 | Cn1ccc(C2CCCCCN2C(=O)c2cc(C3CC3)on2)n1 (stereo not drawn) [CBK283050] | 104% | 
28 | CC(=O)N1C[C@@H]2OCC(=O)N(Cc3nccn3C)[C@@H]2C1 [CBK289668] | 90.6% | 
29 | N#C/C(=C\c1ccccc1O)C(=O)Nc1sc2c(c1C(N)=O)CCCC2 [CBK263644] | 101% | 
30 | CC(=O)NCC(CN1CCOCC1)([N+](=O)[O-])[N+](=O)[O-] [CBK261337] | 88.2% | 
31 | Cc1ccc(C(=O)N2CCN(Cc3cc(=O)n4ccsc4n3)CC2)cc1 [CBK305057] | 107% | 
32 | CCC1CCCCN1C(=O)c1ccc(C)s1 (stereo not drawn) [CBK084526] | 96.6% | 
33 | O=[N+]([O-])c1cccc(C(Nc2ccccn2)n2cnc3ccccc32)c1 (stereo not drawn) [CBK261145] | 87.6% | 
34 | CC(=O)Nc1cc2nc3ccccc3nc2cc1NC(C)=O [CBK261018] | 92.6% | 
35 | CN(CCOc1ccc(Cl)cc1)C(=O)COc1cc2ccccc2cc1C(=O)O [CBK296720] | 108% | 
36 | COc1ccc(CC(=O)N2CCCC(c3nccnc3-c3cccc(C)c3)C2)cc1 (stereo not drawn) [CBK286137] | 94.1% | 
37 | Brc1ncccc1OCc1ccccc1 [CBK001458] | 82.6% | 
38 | CN1CCN(CC(=O)Nc2ccc(Cl)cc2C(=O)c2ccccc2)CC1 [CBK266246] | 91.8% | 
39 | O=S(=O)(Nc1ccc2cn[nH]c2c1)c1ccc(-c2ccon2)s1 [CBK067157] | 98.3% | 
40 | CN1CCN(C(=S)SCC(=O)O)CC1 [CBK261549C] | 92.8% | 
41 | Cc1cc(C(=O)NCCC(=O)O)c2ccccc2n1 [CBK286573] | 86% | 
42 | CCCC(=O)Nc1ccc(-c2csc(CCN3CCOC3=O)n2)cc1 [CBK305687] | 97% | 
43 | C=CCOc1cccn2c(N(C=O)Cc3ccccc3)c(CC)nc12 [CBK147827] | 92.2% | 
44 | O=C(c1cccs1)[C@H]1CCCN(C(=O)c2cc(C3CC3)n[nH]2)C1 [CBK282411] | 85.3% | 
45 | CCn1c(C)nc2cc(NC(=O)c3cnn(C)c3)ccc21 [CBK281837] | 86.1% | 
